Assay results published in ChEMBL document CHEMBL1909046, “DrugMatrix in vitro pharmacology data”.

What was measured:
[1] = DRUGMATRIX: Nicotinic Acetylcholine radioligand binding (ligand: [125I] Epibatidine); type: cell membranes, Membrane; details: imr-32; Not Active = under 50% inhibition at 10 µM
Glucocorticoid receptor = molecular target: T1, Glucocorticoid receptor (Homo sapiens, UniProt P04150); details: hela s3; also: in other assays of this panel Not Active means under 50% inhibition at 10 µM
T1 sequence (P04150 whole entry): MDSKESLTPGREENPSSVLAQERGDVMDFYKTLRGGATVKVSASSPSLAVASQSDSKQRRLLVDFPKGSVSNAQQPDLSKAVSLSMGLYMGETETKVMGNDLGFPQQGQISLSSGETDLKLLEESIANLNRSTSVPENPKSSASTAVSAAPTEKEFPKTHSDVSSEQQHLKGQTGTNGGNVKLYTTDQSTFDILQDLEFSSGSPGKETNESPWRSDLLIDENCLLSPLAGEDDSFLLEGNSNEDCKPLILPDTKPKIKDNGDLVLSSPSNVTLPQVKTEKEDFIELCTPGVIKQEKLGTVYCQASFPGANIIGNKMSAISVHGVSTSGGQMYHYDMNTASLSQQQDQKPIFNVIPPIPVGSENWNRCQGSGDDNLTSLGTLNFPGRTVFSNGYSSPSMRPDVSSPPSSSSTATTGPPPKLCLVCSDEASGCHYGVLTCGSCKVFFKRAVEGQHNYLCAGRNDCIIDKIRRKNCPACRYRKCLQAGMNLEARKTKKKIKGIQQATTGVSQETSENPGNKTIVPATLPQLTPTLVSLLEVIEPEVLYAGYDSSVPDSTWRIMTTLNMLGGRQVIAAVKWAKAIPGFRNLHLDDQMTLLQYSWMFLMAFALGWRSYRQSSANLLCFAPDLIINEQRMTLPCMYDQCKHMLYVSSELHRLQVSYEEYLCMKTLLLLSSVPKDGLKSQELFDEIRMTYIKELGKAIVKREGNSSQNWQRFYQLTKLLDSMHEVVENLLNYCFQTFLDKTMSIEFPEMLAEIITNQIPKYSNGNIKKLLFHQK

[2] = molecular target: T2, Amine oxidase [flavin-containing] A (Homo sapiens, UniProt P21397); experiment: DRUGMATRIX: Monoamine Oxidase MAO-A enzyme inhibition (substrate: Kynuramine); set-up: species or system BTI-TN-5B1-4; details: bti-tn-5b1-4; Not Active = under 50% inhibition at 10 µM
T2 sequence (P21397 whole entry): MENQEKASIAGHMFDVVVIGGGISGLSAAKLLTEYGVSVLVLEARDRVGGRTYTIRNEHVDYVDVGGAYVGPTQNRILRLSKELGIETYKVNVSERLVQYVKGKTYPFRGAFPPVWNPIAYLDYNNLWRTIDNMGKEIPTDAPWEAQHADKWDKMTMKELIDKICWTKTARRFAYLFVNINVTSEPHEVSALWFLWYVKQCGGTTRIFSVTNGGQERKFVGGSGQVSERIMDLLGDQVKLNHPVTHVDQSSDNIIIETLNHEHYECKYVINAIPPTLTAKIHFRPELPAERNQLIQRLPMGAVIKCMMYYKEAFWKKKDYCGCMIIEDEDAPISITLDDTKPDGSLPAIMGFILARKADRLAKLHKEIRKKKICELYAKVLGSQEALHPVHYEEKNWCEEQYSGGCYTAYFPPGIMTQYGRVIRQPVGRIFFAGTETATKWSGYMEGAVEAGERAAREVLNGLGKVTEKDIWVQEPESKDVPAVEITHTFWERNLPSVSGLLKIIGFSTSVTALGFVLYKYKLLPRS

[3] = DRUGMATRIX: Atrial Natriuretic Factor (ANF) radioligand binding (ligand: [125I] ANF (rat)); type: cell membranes, Cavia porcellus, Dunkin-Hartley, Adrenal gland, Membrane; details: Not Active = under 50% inhibition at 10 µM
Substance-P receptor = Substance-P receptor (Homo sapiens, UniProt P25103); type: cell membranes, Membrane; details: cho; also: in other assays of this panel Not Active means under 50% inhibition at 10 µM
Calcitonin receptor = molecular target: T3, Calcitonin receptor (Homo sapiens, UniProt P30988); type: cell membranes, Membrane; details: t47d; also: in other assays of this panel Not Active means under 50% inhibition at 10 µM
T3 sequence (P30988 whole entry): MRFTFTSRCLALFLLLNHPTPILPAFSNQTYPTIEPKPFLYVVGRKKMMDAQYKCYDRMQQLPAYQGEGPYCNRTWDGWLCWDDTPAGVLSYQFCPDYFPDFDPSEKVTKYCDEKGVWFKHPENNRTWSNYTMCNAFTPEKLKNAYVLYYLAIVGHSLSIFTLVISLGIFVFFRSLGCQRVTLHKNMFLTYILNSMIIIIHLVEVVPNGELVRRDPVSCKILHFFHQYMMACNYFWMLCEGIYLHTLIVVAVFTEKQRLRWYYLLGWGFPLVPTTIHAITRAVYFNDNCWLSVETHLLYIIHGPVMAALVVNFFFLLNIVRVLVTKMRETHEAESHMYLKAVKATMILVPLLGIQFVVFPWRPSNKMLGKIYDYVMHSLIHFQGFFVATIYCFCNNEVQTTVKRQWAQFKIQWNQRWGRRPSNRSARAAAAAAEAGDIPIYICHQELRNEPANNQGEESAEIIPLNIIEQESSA

[4] = molecular target: T4, Type-2 angiotensin II receptor (Homo sapiens, UniProt P50052); type: cell-based; details: cho-k1; also: in other assays of this panel Not Active means under 50% inhibition at 10 µM
T4 sequence (P50052 whole entry): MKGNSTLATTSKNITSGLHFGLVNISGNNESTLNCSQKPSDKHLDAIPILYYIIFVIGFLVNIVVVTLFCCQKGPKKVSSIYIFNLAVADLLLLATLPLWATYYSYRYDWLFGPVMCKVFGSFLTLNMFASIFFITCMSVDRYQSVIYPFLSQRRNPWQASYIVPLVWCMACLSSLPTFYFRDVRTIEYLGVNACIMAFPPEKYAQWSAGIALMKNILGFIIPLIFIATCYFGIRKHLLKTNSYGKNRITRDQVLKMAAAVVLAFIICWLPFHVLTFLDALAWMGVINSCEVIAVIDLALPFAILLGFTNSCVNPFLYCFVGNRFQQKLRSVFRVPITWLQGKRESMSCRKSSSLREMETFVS

[5] = molecular target: T5, C-X-C chemokine receptor type 2 (Homo sapiens, UniProt P25025); type: cell membranes, Membrane; details: cho-k1; also: in other assays of this panel Not Active means under 50% inhibition at 10 µM
T5 sequence (P25025 whole entry): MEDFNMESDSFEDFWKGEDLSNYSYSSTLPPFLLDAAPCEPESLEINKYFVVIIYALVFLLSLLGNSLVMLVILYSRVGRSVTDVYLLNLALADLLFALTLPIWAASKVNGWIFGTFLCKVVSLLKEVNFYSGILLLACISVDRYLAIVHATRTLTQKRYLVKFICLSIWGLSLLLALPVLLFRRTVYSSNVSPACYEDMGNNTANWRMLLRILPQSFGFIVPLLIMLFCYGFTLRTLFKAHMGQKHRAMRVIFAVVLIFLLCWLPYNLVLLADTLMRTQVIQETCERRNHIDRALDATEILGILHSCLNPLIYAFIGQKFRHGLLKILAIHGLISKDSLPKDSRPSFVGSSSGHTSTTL

[6] = DRUGMATRIX: Phorbol Ester radioligand binding (ligand: [3H] PDBu); type: cell membranes, Mus musculus, ICR, Brain, Membrane; details: Not Active = under 50% inhibition at 10 µM

Chain of Substance-P receptor (P25103 whole entry): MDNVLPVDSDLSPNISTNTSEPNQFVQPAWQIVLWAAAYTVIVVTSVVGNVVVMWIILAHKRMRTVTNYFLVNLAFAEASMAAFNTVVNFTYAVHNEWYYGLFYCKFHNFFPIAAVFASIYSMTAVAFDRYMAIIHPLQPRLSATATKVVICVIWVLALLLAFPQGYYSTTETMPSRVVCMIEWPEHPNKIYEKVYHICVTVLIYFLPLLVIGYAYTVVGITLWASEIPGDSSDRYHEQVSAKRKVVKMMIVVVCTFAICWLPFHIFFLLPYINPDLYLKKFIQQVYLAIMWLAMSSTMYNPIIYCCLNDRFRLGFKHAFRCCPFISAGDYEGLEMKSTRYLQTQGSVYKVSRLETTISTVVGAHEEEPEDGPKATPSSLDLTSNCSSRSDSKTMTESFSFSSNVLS

COc1ccccc1OCC(O)COC(N)=O (centres undefined) [METHOCARBAMOL]
Not Active: IC50 [1] | Ki [1] | IC50 (Glucocorticoid receptor) | IC50 [2] | IC50 [3] | Ki [3] | IC50 (Substance-P receptor) | IC50 (Calcitonin receptor) | IC50 [4] | IC50 [5] | IC50 [6] | Ki [6]

CO[C@@]1(NC(=O)CSCC#N)C(=O)N2C(C(=O)O)=C(CSc3nnnn3C)CS[C@@H]21 [CEFMETAZOLE]
Not Active: IC50 [1] | Ki [1] | IC50 (Glucocorticoid receptor) | IC50 [2] | IC50 [3] | Ki [3] | IC50 (Substance-P receptor) | IC50 (Calcitonin receptor) | IC50 [4] | IC50 [5] | IC50 [6] | Ki [6]

C=C(CC)C(=O)c1ccc(OCC(=O)O)c(Cl)c1Cl [ETHACRYNIC ACID]
Not Active: IC50 [1] | Ki [1] | IC50 (Glucocorticoid receptor) | IC50 [2] | IC50 [3] | Ki [3] | IC50 (Substance-P receptor) | IC50 (Calcitonin receptor) | IC50 [4] | IC50 [5] | IC50 [6] | Ki [6]

Oc1ccccc1O [CATECHOL]
Not Active: IC50 [1] | Ki [1] | IC50 (Glucocorticoid receptor) | IC50 [2] | IC50 [3] | Ki [3] | IC50 (Substance-P receptor) | IC50 (Calcitonin receptor) | IC50 [4] | IC50 [5] | IC50 [6] | Ki [6]

O=P1(N(CCCl)CCCl)NCCCO1 (centres undefined) [CYCLOPHOSPHAMIDE ANHYDROUS]
Not Active: IC50 [1] | Ki [1] | IC50 (Glucocorticoid receptor) | IC50 [2] | IC50 [3] | Ki [3] | IC50 (Substance-P receptor) | IC50 (Calcitonin receptor) | IC50 [4] | IC50 [5] | IC50 [6] | Ki [6]

Cc1cccc(Nc2ccccc2C(=O)O)c1C [MEFENAMIC ACID]
Not Active: IC50 [1] | Ki [1] | IC50 (Glucocorticoid receptor) | IC50 [2] | IC50 [3] | Ki [3] | IC50 (Substance-P receptor) | IC50 (Calcitonin receptor) | IC50 [4] | IC50 [5] | IC50 [6] | Ki [6]

Cc1c(N(C)CS(=O)(=O)[O-])c(=O)n(-c2ccccc2)n1C.[Na+] [DIPYRONE SODIUM]
Not Active: IC50 [1] | Ki [1] | IC50 (Glucocorticoid receptor) | IC50 [2] | IC50 [3] | Ki [3] | IC50 (Substance-P receptor) | IC50 (Calcitonin receptor) | IC50 [4] | IC50 [5] | IC50 [6] | Ki [6]
